Reference: the NIST ThermoML archive (doi:10.1021/je049556i)

Columns and labels:
[1] = 101 kPa, Liquid
[2] = xn = mol fraction of the nth substance listed; settings: 101 kPa, Liquid

CC1OC(C)OC(C)O1 (stereo not drawn) [2,4,6-trimethyl-1,3,5-trioxane]
[1]
Settings | mass density [kg/m3] | viscosity [mPa·s]
298.15 K | 988.35 | 1.107
303.15 K | 982.64 | 1.001
308.15 K | 976.44 | 0.907

CC1OC(C)OC(C)O1 (stereo not drawn) [2,4,6-trimethyl-1,3,5-trioxane] + CCCCO
[2]
Settings | mass density, 298.15 K [kg/m3] | mass density, 303.15 K [kg/m3] | mass density, 308.15 K [kg/m3] | viscosity, 298.15 K [mPa·s] | viscosity, 303.15 K [mPa·s] | viscosity, 308.15 K [mPa·s]
x1 = 0.0289 | 814.71 | 810.8 | 806.91 | 2.46 | 2.164 | 1.917
x1 = 0.0582 | 823.46 | 819.5 | 815.51 | 2.311 | 2.037 | 1.809
x1 = 0.0804 | 829.94 | 825.93 | 821.87 | 2.204 | 1.948 | 1.732
x1 = 0.0999 | 835.53 | 831.47 | 827.35 | 2.116 | 1.873 | 1.668
x1 = 0.194 | 861.02 | 856.78 | 852.47 | 1.756 | 1.568 | 1.406
x1 = 0.3007 | 886.93 | 882.65 | 878.35 | 1.471 | 1.324 | 1.197
x1 = 0.4056 | 909.58 | 905 | 900.34 | 1.302 | 1.177 | 1.07
x1 = 0.5091 | 928.91 | 924.2 | 919.2 | 1.219 | 1.103 | 1.006
x1 = 0.6218 | 946.67 | 941.75 | 936.55 | 1.193 | 1.077 | 0.983
x1 = 0.6932 | 956.21 | 951.23 | 945.98 | 1.193 | 1.075 | 0.98
x1 = 0.8331 | 972.07 | 966.65 | 960.87 | 1.184 | 1.064 | 0.969
x1 = 0.9165 | 980.1 | 974.5 | 968.65 | 1.143 | 1.03 | 0.938
x1 = 1 | 988.35 | 982.64 | 976.44 | 1.107 | 1.001 | 0.907

CC1OC(C)OC(C)O1 (stereo not drawn) [2,4,6-trimethyl-1,3,5-trioxane] + CCCO
[2]
Settings | mass density, 298.15 K [kg/m3] | mass density, 303.15 K [kg/m3] | mass density, 308.15 K [kg/m3] | viscosity, 298.15 K [mPa·s] | viscosity, 303.15 K [mPa·s] | viscosity, 308.15 K [mPa·s]
x1 = 0.0286 | 809.7 | 804.77 | 800.59 | 1.861 | 1.653 | 1.474
x1 = 0.0484 | 816.43 | 811.5 | 807.28 | 1.807 | 1.606 | 1.433
x1 = 0.0743 | 824.91 | 820 | 815.72 | 1.74 | 1.548 | 1.383
x1 = 0.101 | 833.29 | 828.4 | 824.06 | 1.676 | 1.492 | 1.334
x1 = 0.197 | 860.73 | 855.87 | 851.32 | 1.481 | 1.322 | 1.187
x1 = 0.3124 | 888.86 | 883.99 | 879.22 | 1.312 | 1.175 | 1.061
x1 = 0.4052 | 908.29 | 903.38 | 898.44 | 1.219 | 1.096 | 0.994
x1 = 0.527 | 930.22 | 925.2 | 920.07 | 1.145 | 1.034 | 0.942
x1 = 0.5689 | 936.94 | 931.88 | 926.69 | 1.129 | 1.021 | 0.931
x1 = 0.7214 | 958.42 | 953.17 | 947.75 | 1.105 | 1.001 | 0.915
x1 = 0.8026 | 968.19 | 962.8 | 957.27 | 1.105 | 1.002 | 0.915
x1 = 0.8948 | 978.07 | 972.51 | 966.87 | 1.109 | 1.005 | 0.915
x1 = 1 | 988.35 | 982.64 | 976.44 | 1.107 | 1.001 | 0.907

CC1OC(C)OC(C)O1 (stereo not drawn) [2,4,6-trimethyl-1,3,5-trioxane] + CCO
[2]
Settings | mass density, 298.15 K [kg/m3] | mass density, 303.15 K [kg/m3] | mass density, 308.15 K [kg/m3] | viscosity, 298.15 K [mPa·s] | viscosity, 303.15 K [mPa·s] | viscosity, 308.15 K [mPa·s]
x1 = 0.0372 | 802.48 | 798.21 | 793.84 | 1.071 | 0.979 | 0.886
x1 = 0.0801 | 820.65 | 816.3 | 811.97 | 1.059 | 0.966 | 0.876
x1 = 0.1299 | 839.52 | 835.19 | 830.81 | 1.045 | 0.952 | 0.866
x1 = 0.1885 | 859.12 | 854.68 | 850.28 | 1.031 | 0.938 | 0.855
x1 = 0.2589 | 879.57 | 875.01 | 870.45 | 1.016 | 0.924 | 0.844
x1 = 0.3433 | 900.45 | 895.77 | 890.94 | 1.003 | 0.912 | 0.835
x1 = 0.4485 | 922.04 | 917.27 | 912.16 | 0.994 | 0.903 | 0.828
x1 = 0.5823 | 944.05 | 939.04 | 933.74 | 0.995 | 0.904 | 0.829
x1 = 0.6816 | 957.34 | 952.18 | 946.76 | 1.006 | 0.915 | 0.837
x1 = 0.7582 | 966.15 | 960.83 | 955.25 | 1.022 | 0.929 | 0.849
x1 = 0.8003 | 970.54 | 965.15 | 959.44 | 1.033 | 0.939 | 0.857
x1 = 0.8452 | 974.98 | 969.45 | 963.6 | 1.048 | 0.951 | 0.868
x1 = 0.8932 | 979.38 | 973.8 | 967.86 | 1.065 | 0.967 | 0.881
x1 = 0.9446 | 983.9 | 978.26 | 972.13 | 1.088 | 0.986 | 0.897
x1 = 1 | 988.35 | 982.64 | 976.44 | 1.107 | 1.001 | 0.907

CCCCO [butan-1-ol]
[1]
Settings | mass density [kg/m3] | viscosity [mPa·s]
298.15 K | 805.84 | 2.618
303.15 K | 802 | 2.297
308.15 K | 798.2 | 2.032

CCCCO [butan-1-ol] + CC1OC(C)OC(C)O1
[2], x2 = 0
Settings | mass density [kg/m3] | viscosity [mPa·s]
298.15 K | 805.84 | 2.618
303.15 K | 802 | 2.297
308.15 K | 798.2 | 2.032

CCO [ethanol]
[1]
Settings | mass density [kg/m3] | viscosity [mPa·s]
298.15 K | 785.06 | 1.083
303.15 K | 780.74 | 0.99
308.15 K | 776.48 | 0.895

CCO [ethanol] + CC1OC(C)OC(C)O1
[2], x2 = 0
Settings | mass density [kg/m3] | viscosity [mPa·s]
298.15 K | 785.06 | 1.083
303.15 K | 780.74 | 0.99
308.15 K | 776.48 | 0.895

CCCO [propan-1-ol]
[1]
Settings | mass density [kg/m3] | viscosity [mPa·s]
298.15 K | 799.6 | 1.943
303.15 K | 794.64 | 1.725
308.15 K | 790.53 | 1.537

CCCO [propan-1-ol] + CC1OC(C)OC(C)O1
[2], x2 = 0
Settings | mass density [kg/m3] | viscosity [mPa·s]
298.15 K | 799.6 | 1.943
303.15 K | 794.64 | 1.725
308.15 K | 790.53 | 1.537
